# From patent publication US20210308089A1, “METHODS OF TREATING AND/OR PREVENTING VIRAL INFECTIONS AND/OR DISEASES CAUSED BY VIRUSES IN A SUBJECT IN NEED THEREOF” (priority 2020, published 2021)
# System: patients of the REDUCE-IT and earlier EPA placebo-controlled trials
# Format: in vivo, human
# Settings: R-I
smiles,measurement,value
"CC/C=C\C/C=C\C/C=C\C/C=C\C/C=C\CCCC(=O)OCC [icosapent ethyl, eicosapentaenoic acid ethyl ester]",AR: ALP high (Day 120),3.2%
same,AR: ALP high (Day 360),3.4%
same,AR: ALP high (Day 720),4.4%
same,AR: ALP high (Day 1080),4.4%
same,AR: ALP high (Day 1440),4.2%
same,AR: ALP high (Day 1800),4.3%
same,AR: ALP shift: normal to high (Day 120),1.5%
same,AR: ALP shift: normal to high (Day 360),1.8%
same,AR: ALP shift: normal to high (Day 720),3.0%
same,AR: ALP shift: normal to high (Day 1080),3.3%
same,AR: ALP shift: normal to high (Day 1440),3.2%
same,AR: ALP shift: normal to high (Day 1800),3.3%
same,AR: ALP shift: normal to low (Day 120),0.3%
same,AR: ALP shift: normal to low (Day 360),0.3%
same,AR: ALP shift: normal to low (Day 720),0.4%
same,AR: ALP shift: normal to low (Day 1080),0.4%
same,AR: ALP shift: normal to low (Day 1440),0.6%
same,AR: Albumin high (Day 120),1.0%
same,AR: Albumin high (Day 360),1.2%
same,AR: Albumin high (Day 720),2.1%
same,AR: Albumin high (Day 1080),1.9%
same,AR: Albumin high (Day 1440),1.8%
same,AR: Albumin shift: normal to high (Day 120),0.8%
same,AR: Albumin shift: normal to high (Day 360),0.9%
same,AR: Albumin shift: normal to high (Day 720),1.9%
same,AR: Albumin shift: normal to high (Day 1080),1.8%
same,AR: Albumin shift: normal to high (Day 1440),1.6%
same,AR: Bilirubin >1x ULN to 2x ULN,3.3%
same,AR: Bilirubin >2x ULN to 3x ULN,0.2%
same,AR: Bilirubin high (Day 120),1.9%
same,AR: Bilirubin high (Day 360),1.9%
same,AR: Bilirubin high (Day 720),2.0%
same,AR: Bilirubin high (Day 1080),2.4%
same,AR: Bilirubin high (Day 1440),2.3%
same,AR: Bilirubin high (Day 1800),2.6%
same,AR: Bilirubin shift: normal to high (Day 120),1.0%
same,AR: Bilirubin shift: normal to high (Day 360),0.9%
same,AR: Bilirubin shift: normal to high (Day 720),1.0%
same,AR: Bilirubin shift: normal to high (Day 1080),1.4%
same,AR: Bilirubin shift: normal to high (Day 1440),1.3%
same,AR: Bilirubin shift: normal to high (Day 1800),1.4%
same,AR: Calcium high (Day 120),1.0%
same,AR: Calcium high (Day 360),1.1%
same,AR: Calcium high (Day 720),1.2%
same,AR: Calcium low (Day 120),0.2%
same,AR: Calcium low (Day 360),0.2%
same,AR: Calcium low (Day 720),0.2%
same,AR: DBP High (≥100 mmHg),5.3%
same,AR: DBP High and Rose ≥10 mmHg,4.3%
same,AR: DBP Low (≤50 mmHG),1.0%
same,AR: DBP Low and dropped ≥10 mmHg,0.9%
same,AR: DBP dropped ≥10 mmHG,37.8%
same,AR: DBP rose ≥10 mmHg,36.5%
same,AR: High platelets (Day 720),1.5%
same,AR: Low platelets (Day 360),2.0%
same,AR: Low platelets (Day 720),3.1%
same,AR: Low platelets (Day 1080),3.2%
same,AR: Platelet count: PCS Low <100 × 10^3/uL,0.8%
same,AR: SBP High (≥160 mmHg),18.8%
same,AR: SBP High and rose ≥20 mmHg,11.9%
same,AR: SBP Low (≤90 mmHg),0.8%
same,AR: SBP dropped ≥20 mmHg,24.0%
same,AR: SBP low and dropped ≥20 mmHg,0.6%
same,AR: SBP rose ≥20 mmHg,29.6%
same,AR: Urate high (Day 120),13.4%
same,AR: Urate high (Day 360),13.0%
same,AR: Urate high (Day 720),12.4%
same,AR: Urate high (Day 1080),12.7%
same,AR: Urate high (Day 1440),12.7%
same,AR: Urate high (Day 1800),12.1%
same,AR: Urate shift: normal to high (Day 120),5.5%
same,AR: Urate shift: normal to high (Day 360),6.0%
same,AR: Urate shift: normal to high (Day 720),6.2%
same,AR: Urate shift: normal to high (Day 1080),7.1%
same,AR: Urate shift: normal to high (Day 1440),8.2%
same,AR: Urate shift: normal to high (Day 1800),8.2%
same,AR: Urate shift: normal to low (Day 120),0.1%
same,AR: Urate shift: normal to low (Day 360),0.2%
same,AR: Urate shift: normal to low (Day 720),0.2%
same,AR: Urate shift: normal to low (Day 1080),0.2%
same,AR: Urate shift: normal to low (Day 1440),0.3%
same,AR: Uric acid PCS High >7.5 mg/dL (Women),5.0%
same,AR: Uric acid PCS High >8.0 mg/dL (Men),15.3%
same,AR: Uric acid PCS Low <1.9 mg/dL (Women),0.0%
same,AR: Uric acid PCS Low <2.5 mg/dL (Men),0.4%
same,ARR: ALP high (Day 120),−1.5%
same,ARR: ALP high (Day 360),−2.0%
same,ARR: ALP high (Day 720),−2.4%
same,ARR: ALP high (Day 1080),−3.0%
same,ARR: ALP high (Day 1440),−2.9%
same,ARR: ALP high (Day 1800),−2.7%
same,ARR: ALP shift: normal to high (Day 120),−1.3%
same,ARR: ALP shift: normal to high (Day 360),−1.8%
same,ARR: ALP shift: normal to high (Day 720),−2.6%
same,ARR: ALP shift: normal to high (Day 1080),−3.0%
same,ARR: ALP shift: normal to high (Day 1440),−2.7%
same,ARR: ALP shift: normal to high (Day 1800),−2.6%
same,ARR: ALP shift: normal to low (Day 120),0.4%
same,ARR: ALP shift: normal to low (Day 360),0.3%
same,ARR: ALP shift: normal to low (Day 720),0.4%
same,ARR: ALP shift: normal to low (Day 1080),0.3%
same,ARR: ALP shift: normal to low (Day 1440),0.1%
same,ARR: Albumin high (Day 120),0.8%
same,ARR: Albumin high (Day 360),0.7%
same,ARR: Albumin high (Day 720),0.6%
same,ARR: Albumin high (Day 1080),0.7%
same,ARR: Albumin high (Day 1440),0.8%
same,ARR: Albumin shift: normal to high (Day 120),0.8%
same,ARR: Albumin shift: normal to high (Day 720),0.7%
same,ARR: Albumin shift: normal to high (Day 1080),0.4%
same,ARR: Albumin shift: normal to high (Day 1440),0.7%
same,ARR: Bilirubin >1x ULN to 2x ULN,3.5%
same,ARR: Bilirubin >2x ULN to 3x ULN,0.2%
same,ARR: Bilirubin high (Day 120),2.4%
same,ARR: Bilirubin high (Day 360),2.0%
same,ARR: Bilirubin high (Day 720),2.6%
same,ARR: Bilirubin high (Day 1080),2.0%
same,ARR: Bilirubin high (Day 1440),2.5%
same,ARR: Bilirubin high (Day 1800),2.3%
same,ARR: Bilirubin shift: normal to high (Day 120),1.3%
same,ARR: Bilirubin shift: normal to high (Day 360),1.3%
same,ARR: Bilirubin shift: normal to high (Day 720),1.3%
same,ARR: Bilirubin shift: normal to high (Day 1080),1.0%
same,ARR: Bilirubin shift: normal to high (Day 1440),1.8%
same,ARR: Bilirubin shift: normal to high (Day 1800),1.2%
same,ARR: Calcium high (Day 120),−0.2%
same,ARR: Calcium high (Day 360),−0.1%
same,ARR: Calcium high (Day 720),−0.3%
same,ARR: Calcium low (Day 120),0.1%
same,ARR: Calcium low (Day 360),0.2%
same,ARR: Calcium low (Day 720),0.2%
same,ARR: DBP High (≥100 mmHg),0.6%
same,ARR: DBP High and Rose ≥10 mmHg,0.4%
same,ARR: DBP Low (≤50 mmHG),0.1%
same,ARR: DBP Low and dropped ≥10 mmHg,0.0%
same,ARR: DBP dropped ≥10 mmHG,3.2%
same,ARR: DBP rose ≥10 mmHg,−0.6%
same,ARR: High platelets (Day 720),0.6%
same,ARR: Low platelets (Day 360),−1.8%
same,ARR: Low platelets (Day 720),−0.7%
same,ARR: Low platelets (Day 1080),−1.2%
